Laboratory results: publication PMC3857224, “Inhibition of DNA Glycosylases via Small Molecule Purine Analogs” (PLoS ONE, 2013)

Tests used:
NEIL1 = biological target: T1, NEIL1 (Homo sapiens, UniProt Q96FI4); experiment: qHTS fluorogenic glycosylase/AP lyase assay, 1536-well, Sp/Gh substrate; assay type: biochemical; details: 5 concentrations
T1 construct: made in house
Protocol: The fluorogenic assay was miniaturized to 4 µL in 1536-well black solid plates by optimization of the enzyme and Sp/Gh substrate concentrations. Briefly, 3 µL of 25 nM NEIL1 were dispensed into each well of a 1536-well plate (except buffer in columns 3 and 4 as a negative control). Compounds (DMSO solutions) and control (DMSO only) (23 nL) were transferred to the plate via Kalypsys pintool. The plate was incubated for 15 min at room temperature, and then 1 µL of the Sp/Gh-containing DNA substrate (75 nM final concentration) was added to start the reaction. The plate was immediately transferred into the ViewLux reader for the kinetic fluorescence read. Initial rate data were normalized against uninhibited and no-enzyme controls and the resulting percent activities as a function of compound concentration were fitted using the Hill equation.
Having established the general principle for a glycosylase screening assay, further assay development was undertaken to enable HTS in which the reaction volumes were reduced by 5-fold to a total of 4 µL. Initially, the library of pharmacologically active compounds (LOPAC^1280) was screened for inhibitors of NEIL1 as a determination of the feasibility of this high-throughput method. […] All compounds were screened at 5 different concentrations that allowed for the initial estimation of inhibitory potency (IC50) values, as well as an evaluation of the shape of the response curves. In addition to the anticipated inhibitors (known DNA intercalators, such as ellipticine (IC50 = 2 µM)) and other small molecules that have been previously established to be promiscuous inhibitors (such as aurintricarboxylic acid (IC50<1 µM)), one interesting hit from this screen was CGP-74514A (NCGC ID is NCGC00015229) (Figure 5A). CGP-74514A is a known small molecule inhibitor of Cdk1 in which the structure of this molecule is based on a purine ring backbone.

duplex DNA ladder = experiment: DNA ladder gel-shift intercalation assay; assay type: binding; details: 40 µM compound, 20 min room temperature
Protocol: To test whether potential inhibitors could exert their inhibitory effect via DNA intercalation, 10 µL reactions containing 500 ng of a 100-bp DNA ladder were incubated at room temperature for 20 min with 40 µM of the selected compound. Ellipticine, a compound that is known to intercalate into duplex DNA was used as a control compound at a final concentration of 40 µM. Samples were resolved on a 1% agarose gel in 0.5X Tris-borate EDTA running buffer at 120 V for 2 h. Shifts in gel mobility were visualized by post staining with ethidium bromide and images were captured on a ChemiImager 5500 (Protein Simple, Santa Clara, CA).
To assay whether these inhibitors could block NEIL1 activity through DNA intercalation, a DNA ladder gel-shift assay was performed, with ellipticine serving as a positive control. A duplex DNA ladder was incubated with each inhibitor, and analyzed for electrophoretic mobility shift.

T1 sequence (Q96FI4 whole entry): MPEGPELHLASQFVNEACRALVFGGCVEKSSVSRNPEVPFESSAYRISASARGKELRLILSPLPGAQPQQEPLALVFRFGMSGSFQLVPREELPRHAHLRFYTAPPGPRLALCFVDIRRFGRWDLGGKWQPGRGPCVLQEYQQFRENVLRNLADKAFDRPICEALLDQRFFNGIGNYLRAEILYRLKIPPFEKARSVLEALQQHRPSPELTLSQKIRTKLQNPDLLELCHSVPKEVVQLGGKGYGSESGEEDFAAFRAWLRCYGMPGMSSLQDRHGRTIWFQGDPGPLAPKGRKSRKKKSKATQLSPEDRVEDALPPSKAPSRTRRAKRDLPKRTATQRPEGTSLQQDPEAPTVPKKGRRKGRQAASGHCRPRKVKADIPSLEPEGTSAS

Structure (SMILES): Cc1c2ccncc2c(C)c2c1[nH]c1ccccc12 [ellipticine, reference compound]
- IC50 (NEIL1): 2 µM
- shift in electrophoretic mobility of DNA ladder (intercalation) (duplex DNA ladder): major reduction in the electrophoretic mobility
